From PubChem BioAssay (NCI)
Where “and” joins values, the source holds several entries; their conditions need not be identical. Equal entries are not always repeated.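 All cell lines were grown in 96-well plates and treated with compound for 48 hours. At the GI50, growth is halved. TGI is the concentration that stops growth completely.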

Experiments:
Experiment in all cases: NCI tumour cell line growth inhibition, 48 h
HCC-2998 colon = test system: HCC-2998 colon
RPMI-8226 leukemia = test system: RPMI-8226 leukemia
M19-MEL melanoma = test system: M19-MEL melanoma
PC-3 prostate = test system: PC-3 prostate
UACC-257 melanoma = test system: UACC-257 melanoma
SF-539 CNS = test system: SF-539 CNS
M14 melanoma = test system: M14 melanoma
DMS 273 small cell lung = test system: DMS 273 small cell lung
DMS 114 small cell lung = test system: DMS 114 small cell lung
HCT-116 colon = test system: HCT-116 colon

Compound	GI50 (HCC-2998 colon)	TGI (HCC-2998 colon)	GI50 (RPMI-8226 leukemia)	TGI (RPMI-8226 leukemia)	GI50 (M19-MEL melanoma) [µM]	TGI (M19-MEL melanoma)	GI50 (PC-3 prostate) [µM]	TGI (PC-3 prostate)	GI50 (UACC-257 melanoma)	TGI (UACC-257 melanoma)	GI50 (SF-539 CNS)	TGI (SF-539 CNS)	GI50 (M14 melanoma) [µM]	TGI (M14 melanoma)	GI50 (DMS 273 small cell lung) [µM]	TGI (DMS 273 small cell lung)	GI50 (DMS 114 small cell lung) [µM]	TGI (DMS 114 small cell lung)	GI50 (HCT-116 colon)	TGI (HCT-116 colon)
N[C@@H](Cc1ccc(N(CCCl)CCCl)cc1)C(=O)O	75.5 µM and 22.1 µM	> 100 µM and 62.2 µM and 95.4 µM	19.3 µM and 22.7 µM	75.4 µM and > 85 µM and 183 µM	15.9	45.3 µM and 102 µM	32.5	> 100 µM and 129 µM	37.6 µM and 20.2 µM	> 100 µM and 58.9 µM and 119 µM	6.03 µM and 4.36 µM	49.6 µM and 8.61 µM and 53.8 µM	17.3	> 100 µM and 84.2 µM	6.97	33.6 µM and 68.3 µM	13	29.1 µM and 86.4 µM	25.4 µM and 20.9 µM	> 100 µM and 51.1 µM and 137 µM
OC1OC2COC(c3ccccc3)OC2C(O)C1O (centres undefined)		> 100 µM		> 100 µM		> 100 µM				> 100 µM		> 100 µM		> 100 µM		> 100 µM		> 100 µM		> 100 µM
NC1=C(O)/C(=N/NS(=O)(=O)c2ccccc2)C(c2cccc(Cl)c2)O1 (centres undefined)		> 100 µM		> 47.4 µM		> 57.2 µM		54.2 µM		> 100 µM		> 81.8 µM		67.6 µM		> 100 µM		42.1 µM		53.6 µM
O=P1(NCCCl)OCCC(OO)N1CCCl (centres undefined)		> 100 µM		> 100 µM		> 100 µM		> 100 µM		> 82.6 µM		33 µM		> 57 µM		> 100 µM		> 100 µM		33.6 µM
Cc1cc2c(C=O)[nH]nc2c(C#N)c1C		> 100 µM		> 100 µM		> 100 µM				> 100 µM		61.4 µM		> 100 µM		> 100 µM		99.3 µM		> 100 µM
CC(=O)NC1C(OCc2ccccc2)OC(COC(=O)CCCCCCCCCCNC(=O)CCNc2ccc([N+](=O)[O-])c3[nH]c4ccc(O)cc4c(=O)c23)C(O)C1OC(C)C(=O)N[C@H](C(=O)N[C@H](CCC(=O)O)C(N)=O)C(C)C (some centres undefined)		> 100 µM		46.6 µM		> 100 µM				> 100 µM		> 100 µM		> 100 µM		> 100 µM		> 100 µM		> 100 µM
OCC1C2C=CC(O2)[C@H]1CO (some centres undefined)		> 100 µM		> 100 µM		> 100 µM				> 100 µM		> 100 µM		> 100 µM		> 100 µM		> 100 µM		> 100 µM
O=c1cc(/C=C/c2ccccc2)c2ccc(O/C(=C\c3ccccc3)c3nc4ccccc4c(=O)o3)cc2o1		> 100 µM		60.3 µM		91 µM				98.4 µM		63.2 µM		50.1 µM		> 100 µM		71.7 µM		36.5 µM
OC1/C(=C/c2ccccc2)CNC/C1=C\c1ccccc1 (centres undefined)		> 100 µM		> 100 µM		> 100 µM				> 100 µM		> 100 µM		> 100 µM		> 100 µM		> 100 µM		> 100 µM
COc1nc(C(Cl)(Cl)Cl)c(Cl)c(OC)c1Cl		> 58.3 µM and 95 µM	> 41.1 µM	> 62.9 µM and 112 µM	25.3	58.5 µM and 67 µM		73.6 µM	> 50.9 µM	> 72.9 µM and 79.7 µM	> 52 µM	> 86.8 µM and 77.2 µM	> 52	> 83.7 µM and 74.5 µM		75.3 µM	19.7	45.9 µM and 61.6 µM		> 57.8 µM and 78.3 µM
COc1cc(C2C(C(=O)Nc3ccccc3C)=C(C)NC(C)=C2C(=O)Nc2ccccc2C)ccc1O		> 100 µM		> 100 µM		> 100 µM				> 100 µM		> 100 µM		> 100 µM		> 100 µM		> 100 µM		> 100 µM
